Results from US20160280688A1, “SUBSTITUTED PHENYLALANINE DERIVATIVES” (BAYER PHARMA AKTIENGESELLSCHAFT, priority 2013, published 2016).
Counter-ions that a name gives are not always drawn.

Assays:
Assay type in all cases: biochemical
[1] = test system: human and animal plasma; test: Determination of the anticoagulatory activity: activated partial thromboplastin time (aPTT) in plasma; settings: in vitro in plasma, C.K. Prest kit, 3 min at 37° C.
Protocol: The anticoagulatory activity of the test substances is determined in vitro in human and animal plasma (for example mouse, rat, rabbit, pig and dog plasma). To this end, blood is drawn off in a mixing ratio of sodium citrate/blood of 1:9 using a 0.11 molar sodium citrate solution as receiver. Immediately after the blood has been drawn off, it is mixed thoroughly and centrifuged at about 4000 g for 15 minutes. The supernatant is pipetted off.
The activated partial thromboplastin time (aPTT) is determined in the presence of varying concentrations of test substance or the corresponding solvent using a commercial test kit (C.K. Prest from Diagnostica Stago). The test compounds are incubated with the plasma and the PTT reagent (cephalin, kaolin) at 37° C. for 3 minutes. Coagulation is then started by addition of a 25 mM aqueous calcium chloride solution, and the time when coagulation occurs is determined. The concentration of test substance which brings about a 1.5-fold extension of the aPTT is determined Activity data from this test are listed in Table B below: […]

[2] = biological target: T1, human factor XIa (Homo sapiens, UniProt P03951); test: Measurement of FXIa inhibition (fluorogenic peptide substrate Boc-Glu(OBzl)-Ala-Arg-AMC); settings: factor XIa from Kordia, 15 min preincubation, 30 min at 22° C., fluorescence
T1 construct: purchased Kordia

[3] = biological target: T2, human plasmin (Homo sapiens, UniProt P00747); test: Measurement of plasmin inhibition (fluorogenic peptide substrate MeOSuc-Ala-Phe-Lys-AMC); settings: plasmin from Kordia, 15 min preincubation, 30 min at 22° C., fluorescence
T2 construct: purchased Kordia
Protocol: The plasmin inhibition of the inventive substances is determined using a biochemical test system which utilizes the reaction of a peptidic plasmin substrate to determine the enzymatic activity of human plasmin. Here, plasmin cleaves from the peptic plasmin substrate the C-terminal aminomethylcoumarin (AMC), the fluorescence of which is measured. The determinations are carried out in microtitre plates.
Test substances are dissolved in dimethyl sulphoxide and serially diluted in dimethyl sulphoxide (3000 μM to 0.0078 μM; resulting final concentrations in the test: 50 μM to 0.00013 μM). In each case 1 μl of the diluted substance solutions are placed into the wells of white microtitre plates from Greiner (384 wells). Subsequently, the following are added successively: 20 μl of assay buffer (50 mmol/l Tris buffer pH 7.4; 100 mmol/l sodium chloride; 5 mmol/l calcium chloride; 0.1% bovine serum albumin) and 20 μl of plasmin from Kordia (0.3 μg/ml in assay buffer). After 15 min of incubation, the enzyme reaction is started by addition of 20 μl of the plasmin substrate MeOSuc-Ala-Phe-Lys-AMC dissolved in assay buffer (150 μM in assay buffer) from Bachem, the mixture is incubated at room temperature (22° C.) for 30 min and fluorescence is then measured (excitation: 360 nm, emission: 460 nm). The measured emissions of the test batches with test substance are compared to those of control batches without test substance (only dimethyl sulphoxide instead of test substance in dimethyl sulphoxide), and ICso values are calculated from the concentration/activity relationships.

T2 sequence (P00747 581-810 limits assumed): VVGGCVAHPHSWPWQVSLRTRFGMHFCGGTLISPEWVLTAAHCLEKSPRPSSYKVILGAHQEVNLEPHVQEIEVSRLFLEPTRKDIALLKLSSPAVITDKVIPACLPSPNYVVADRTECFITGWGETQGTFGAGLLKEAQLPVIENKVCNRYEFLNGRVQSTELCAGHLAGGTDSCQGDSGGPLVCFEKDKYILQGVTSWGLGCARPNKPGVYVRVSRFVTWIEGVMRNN
T2 sequence (P00747 97-580 partner limits assumed): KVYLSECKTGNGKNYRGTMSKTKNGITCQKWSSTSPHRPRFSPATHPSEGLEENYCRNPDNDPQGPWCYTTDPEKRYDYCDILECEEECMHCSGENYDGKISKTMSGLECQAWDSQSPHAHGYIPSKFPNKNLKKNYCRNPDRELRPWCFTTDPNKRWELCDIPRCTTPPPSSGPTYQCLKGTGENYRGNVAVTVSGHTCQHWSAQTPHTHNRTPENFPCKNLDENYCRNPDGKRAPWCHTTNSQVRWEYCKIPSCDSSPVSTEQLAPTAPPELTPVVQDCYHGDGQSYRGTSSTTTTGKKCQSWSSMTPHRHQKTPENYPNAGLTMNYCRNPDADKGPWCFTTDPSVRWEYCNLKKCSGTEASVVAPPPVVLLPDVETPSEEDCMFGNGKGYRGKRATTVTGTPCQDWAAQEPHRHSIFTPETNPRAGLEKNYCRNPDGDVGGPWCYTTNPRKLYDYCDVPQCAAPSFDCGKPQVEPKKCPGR
T1 sequence (P03951 388-625 limits assumed): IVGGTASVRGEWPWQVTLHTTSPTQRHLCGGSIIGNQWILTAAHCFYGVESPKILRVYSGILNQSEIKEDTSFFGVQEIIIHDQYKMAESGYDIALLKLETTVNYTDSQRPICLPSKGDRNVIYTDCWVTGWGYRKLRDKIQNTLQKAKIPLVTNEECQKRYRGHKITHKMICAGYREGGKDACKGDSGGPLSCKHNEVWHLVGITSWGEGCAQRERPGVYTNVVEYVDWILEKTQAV
T1 sequence (P03951 19-387 partner limits assumed): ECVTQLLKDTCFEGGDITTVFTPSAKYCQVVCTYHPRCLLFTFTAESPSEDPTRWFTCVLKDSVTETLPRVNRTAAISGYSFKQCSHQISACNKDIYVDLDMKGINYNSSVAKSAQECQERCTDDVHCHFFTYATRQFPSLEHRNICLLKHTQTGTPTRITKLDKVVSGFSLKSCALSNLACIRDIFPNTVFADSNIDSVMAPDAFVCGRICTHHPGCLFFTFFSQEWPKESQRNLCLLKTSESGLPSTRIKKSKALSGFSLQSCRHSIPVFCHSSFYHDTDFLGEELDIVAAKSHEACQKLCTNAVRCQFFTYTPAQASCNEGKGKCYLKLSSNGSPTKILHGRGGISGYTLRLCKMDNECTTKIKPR

IC50 [2] | IC50 [3] | Compound | aPTT (concentration of test substance which brings about a 1.5-fold extension of the aPTT) ([1]; hydrochloride) | aPTT (concentration of test substance which brings about a 1.5-fold extension of the aPTT) [1]
1.7 nM | 5.9 nM | Cc1cc2nc[nH]c2cc1-c1ccc(C[C@H](NC(=O)[C@H]2CC[C@H](CN)CC2)C(=O)Nc2ccc3c(=O)[nH][nH]c3c2)cc1 [Example 30, N-alpha-{[trans-4-(Aminomethyl)cyclohexyl]carbonyl}-4-(5-methyl-1H-benzimidazol-6-yl)-N-(3-oxo-2,3-dihydro-1H-indazol-6-yl)-L-phenylalaninamide hydrochloride] | 0.07 µmol/L | –
13 nM | 1.7 nM | Cc1cc2[nH]c(C(C)C)nc2cc1-c1ccc(C[C@H](NC(=O)[C@H]2CC[C@H](CN)CC2)C(=O)Nc2ccc3nc(C(F)(F)C(F)(F)F)[nH]c3c2)cc1 [Example 25, N-alpha-{[trans-4-(Aminomethyl)cyclohexyl]carbonyl}-4-(2-isopropyl-6-methyl-1H-benzimidazol-5-yl)-N-[2-(pentafluoroethyl)-1H-benzimidazol-6-yl]-L-phenylalaninamide hydrochloride] | – | 0.96 µmol/L
2.3 nM | 0.95 nM | NC[C@H]1CC[C@H](C(=O)N[C@@H](Cc2ccc(-c3cc4nc(C5CC5)[nH]c4cc3Cl)cc2)C(=O)Nc2ccc3[nH]c(=O)[nH]c3c2)CC1 [Example 23, N-alpha-{[trans-4-(Aminomethyl)cyclohexyl]carbonyl}-4-(6-chloro-2-cyclopropyl-1H-benzimidazol-5-yl)-N-(2-oxo-2,3-dihydro-1H-benzimidazol-5-yl)-L-phenylalaninamide hydrochloride] | – | 0.27 µmol/L
